Reference: patent US10889616B2, “Cytotoxic tubulysin compounds for conjugation” (priority 2014, dated 2021)
Starred links: 1 amine or outer side, 2 acyl side, 3 side chain; linkers in the order of their positions; H or OH if unused. Non-standard residues stand in square brackets, D forms with d. Residues, ends and D or L forms follow the SMILES beside them. *: point of attachment. NPrTuv(OPr) = CCCO[C@H](C[C@H](C(C)C)N(CCC)[*:1])c1nc(C(=O)[*:2])cs1; Hexanoyl(6-maleimido) = O=C1C=CC(=O)N1CCCCCC(=O)*; X1 = C[C@@H](C[C@H](Cc1ccccc1)N*)C(=O)O; PABC = O=C(OCc1ccc(N[*:1])cc1)[*:2]; NMeI = CC[C@H](C)[C@H](NC)C(=O)O; Cit = NC(=O)NCCC[C@H](N)C(=O)O

Assays:
Format in all cases: cell-based
[1] = tested on: MCF7; assay: cytotoxic activity, IC50 against MCF7 cells; conditions: Homo sapiens; MCF7 / MCF-7 cells
[2] = tested on: MDA-MB-468; assay: cytotoxic activity, IC50 against MDA-MB-468 cells; conditions: Homo sapiens
[3] = tested on: BT474; assay: cytotoxic activity, IC50 against BT474 cells; conditions: Homo sapiens; BT474 / BT-474 cells
[4] = tested on: SK-N-MC; assay: cytotoxic activity, IC50 against SK-N-MC cells; conditions: Homo sapiens
[5] = tested on: HEK293; assay: cytotoxic activity, IC50 against HEK293 cells; conditions: Homo sapiens
[6] = tested on: SKBR3; assay: cytotoxic activity, IC50 against SKBR3 cells; conditions: Homo sapiens, SK-BR-3
[7] = tested on: T47D; assay: cytotoxic activity, IC50 against T47D cells; conditions: Homo sapiens; T47D / T-47D cells
[8] = IC50 as ADC with Herceptin and DAR 2; conditions: compound conjugated to Herceptin, DAR 2; cell line not given
[9] = tested on: HT1080; assay: cytotoxic activity, IC50 against HT1080 cells; conditions: Homo sapiens, HT-1080
[10] = tested on: HT29; assay: cytotoxic activity, IC50 against HT29 cells; conditions: Homo sapiens; HT29 / HT-29 cells
[11] = tested on: A2780; assay: cytotoxic activity, IC50 against A2780 cells; conditions: Homo sapiens
[12] = tested on: NCl-H1299; assay: cytotoxic activity, IC50 against NCl-H1299 cells

SMILES	IC50 [1]	IC50 [2]	IC50 [3]	IC50 [4]	also measured
CCCO[C@H](C[C@H](C(C)C)N(CCC)C(=O)[C@@H](NC(=O)[C@H](NC)[C@@H](C)CC)[C@@H](C)CC)c1nc(C(=O)N[C@@H](Cc2ccc(O)cc2)C[C@H](C)C(=O)OC)cs1 [TAM609]	2.17 nM	3.32 nM	0.5 nM	2.12 nM	
CCCO[C@H](C[C@H](C(C)C)N(CCC)C(=O)[C@@H](NC(=O)[C@H](CC(C)C)NC)[C@@H](C)CC)c1nc(C(=O)N[C@@H](Cc2ccccc2)C[C@H](C)C(=O)O)cs1 [TAM497]	64.3 nM	85.6 nM	50 nM	83.3 nM	
CCCO[C@H](C[C@H](C(C)C)N(CCC)C(=O)[C@@H](NC(=O)[C@H]1CCCCN1C)[C@@H](C)CC)c1nc(C(=O)N[C@@H](Cc2ccc(O)cc2)C[C@H](C)C(=O)NNC(=O)OCCOCCOCCN)cs1 [TAM375]		25.8 nM			IC50 [5]: 34.6 nM; IC50 [6]: 18.8 nM
CCCO[C@H](C[C@H](C(C)C)N(CCC)C(=O)[C@@H](NC(=O)[C@@H](NC)[C@@H](C)CC)[C@@H](C)CC)c1nc(C(=O)N[C@@H](Cc2ccc(O)cc2)C[C@H](C)C(=O)OC)cs1 [TAM598]	4.39 nM	5.15 nM		6.74 nM	IC50 [7]: 8.17 nM
CCCO[C@H](C[C@H](C(C)C)N(CCC)C(=O)[C@@H](NC(=O)[C@H]1CCCCN1C)[C@@H](C)CC)c1nc(C(=O)N[C@@H](Cc2ccc(OC(=O)NCCOCCOCCN)cc2)C[C@H](C)C(=O)O)cs1 [TAM371]		0.13 nM		< 0.01 nM	IC50 [5]: 0.1 nM
CCCO[C@H](C[C@H](C(C)C)N(CCC)C(=O)[C@@H](NC(=O)[C@H]1CCCCN1C)[C@@H](C)CC)c1nc(C(=O)N[C@@H](Cc2ccc(O)cc2)C[C@H](C)C(=O)NNC(=O)OCCOCCN=[N+]=[N-])cs1 [TAM426]	1.33 nM	1.71 nM			IC50 [7]: 2 nM
CCCO[C@H](C[C@H](C(C)C)N(CCC)C(=O)[C@@H](NC(=O)[C@H](NC)[C@@H](C)CC)[C@@H](C)CC)c1nc(C(=O)N[C@@H](Cc2ccc(O)cc2)C[C@H](C)C(=O)O)cs1 [TAM610]	0.2 nM	0.3 nM	0.1 nM	0.1 nM	
CCCO[C@H](C[C@H](C(C)C)N(CCC)C(=O)[C@@H](NC(=O)[C@H]([C@@H](C)CC)N(C)C)[C@@H](C)CC)c1nc(C(=O)N[C@@H](Cc2ccccc2)C[C@H](C)C(=O)O)cs1 [TAM522]		2 nM	0.98 nM	1.54 nM	
CCCO[C@H](C[C@H](C(C)C)N(CCC)C(=O)[C@@H](NC(=O)[C@H]1CCCCN1C)[C@@H](C)CC)c1nc(C(=O)N[C@@H](Cc2ccc(O)cc2)C[C@H](C)C(=O)NCCOCCOCCOCCOCCOCCOCCN)cs1 [TAM597]					IC50 [8]: 0.172 nM
CCCO[C@H](C[C@H](C(C)C)N(CCC)C(=O)[C@@H](NC(=O)[C@H]1CCCCN1C)[C@@H](C)CC)c1nc(C(=O)N[C@@H](Cc2ccc(O)cc2)C[C@H](C)C(=O)NNC(=O)OCCOCCOCCOCCNC(=O)CCCCCN2C(=O)C=CC2=O)cs1 [TAM552]					IC50 [9]: 10 nM
CCCO[C@H](C[C@H](C(C)C)N(CCC)C(=O)[C@@H](NC(=O)[C@H]1CCCCN1)[C@@H](C)CC)c1nc(C(=O)N[C@@H](Cc2ccc(O)cc2)C[C@H](C)C(=O)O)cs1 [TAM334]			5.2 nM		IC50 [10]: 12.3 nM; IC50 [6]: 5.4 nM
CCCO[C@H](C[C@H](C(C)C)N(CCC)C(=O)[C@@H](NC(=O)[C@H]1CCCCN1C)[C@@H](C)CC)c1nc(C(=O)N[C@@H](Cc2ccccc2)C[C@H](C)C(=O)NNC(=O)OCCOCCN)cs1 [TAM523]	92.1 nM	221 nM	65 nM	150 nM	
CCCO[C@H](C[C@H](C(C)C)N(CCC)C(=O)[C@@H](NC(=O)[C@H]([C@@H](C)CC)N(C)C)[C@@H](C)CC)c1nc(C(=O)N[C@@H](Cc2ccccc2)C[C@H](C)C(=O)OC)cs1 [TAM521]	6.74 nM	20 nM	4.07 nM	15.3 nM	
CC[C@H](C)[C@H](NC(=O)[C@H]1CCCCN1C)C(=O)N(COC(=O)CC(C)C)[C@H](C[C@@H](OC(C)=O)c1nc(C(=O)N[C@@H](Cc2ccc(O)cc2)C[C@H](C)C(=O)NCCS)cs1)C(C)C [TAM674]					IC50 [11]: 8.7 nM; IC50 [10]: 4.4 nM; IC50 [12]: 19 nM
CCCO[C@H](C[C@H](C(C)C)N(CCC)C(=O)[C@@H](NC(=O)[C@H]([C@@H](C)CC)N(C)C(=O)OCc1ccc(NC(=O)[C@H](CCCNC(N)=O)NC(=O)[C@@H](NC(=O)CCCCCN2C(=O)C=CC2=O)C(C)C)cc1)[C@@H](C)CC)c1nc(C(=O)N[C@@H](Cc2ccccc2)C[C@H](C)C(=O)O)cs1 [TAM551] ({Hexanoyl(6-maleimido)}-V[Cit][PABC][NMeI]I[NPrTuv(OPr)]-X1)					IC50 [9]: 90 nM
CCCO[C@H](C[C@H](C(C)C)N(CCC)C(=O)[C@@H](NC(=O)[C@H](CC(C)C)NC)[C@@H](C)CC)c1nc(C(=O)N[C@@H](Cc2ccccc2)C[C@H](C)C(=O)OC)cs1 [TAM496]	103 nM	214 nM	95.2 nM	300 nM	
CCCO[C@H](C[C@H](C(C)C)N(CCO)C(=O)[C@@H](NC(=O)[C@H]1CCCCN1C)[C@@H](C)CC)c1nc(C(=O)N[C@@H](Cc2ccc(O)cc2)C[C@H](C)C(=O)O)cs1 [TAM608]	4.06 nM	2.24 nM	1.69 nM	1.54 nM	
CCCO[C@H](C[C@H](C(C)C)N(CCC)C(=O)[C@@H](NC(=O)[C@@H](NC)[C@@H](C)CC)[C@@H](C)CC)c1nc(C(=O)N[C@@H](Cc2ccc(O)cc2)C[C@H](C)C(=O)O)cs1 [TAM599]	0.65 nM	0.64 nM		0.77 nM	IC50 [7]: 1.22 nM
CCCO[C@H](C[C@H](C(C)C)N(CCC)C(=O)[C@@H](NC(=O)[C@H]1CCCCN1C)[C@@H](C)CC)c1nc(C(=O)N[C@@H](Cc2ccccc2)C[C@H](C)C(=O)NN)cs1 [TPM320]			11 nM	16 nM	
CCCO[C@H](C[C@H](C(C)C)N(CCC)C(=O)[C@@H](NC(=O)[C@H]1CCCCN1C)[C@@H](C)CC)c1nc(C(=O)N[C@@H](Cc2ccc(O)cc2)C[C@H](C)C(=O)NNC(=O)OCCOCCN)cs1 [TAM428]	20.6 nM	16.8 nM			IC50 [8]: 0.219 nM; IC50 [7]: 32 nM
CCCO[C@H](C[C@H](C(C)C)N(CCC)C(=O)[C@@H](NC(=O)[C@@H](NC)[C@@H](C)CC)[C@@H](C)CC)c1nc(C(=O)N[C@@H](Cc2ccccc2)C[C@H](C)C(=O)O)cs1 [TAM491]	1.77 nM	2.68 nM	1.84 nM	4.57 nM	
CCCO[C@H](C[C@H](C(C)C)N(CCC)C(=O)[C@@H](NC(=O)[C@H]1CCCCN1C)[C@@H](C)CC)c1nc(C(=O)N[C@@H](Cc2ccc(OCCNC)cc2)C[C@H](C)C(=O)O)cs1 [TAM365]		3.41 nM		0.92 nM	IC50 [5]: 0.99 nM
CCCO[C@H](C[C@H](C(C)C)N(CCC)C(=O)[C@@H](NC(=O)[C@H]1CCCCN1C)[C@@H](C)CC)c1nc(C(=O)N[C@@H](Cc2ccc(OCCCCN)cc2)C[C@H](C)C(=O)O)cs1 [TAM486]	57.5 nM	81.5 nM	50.9 nM	48.5 nM	IC50 [7]: 142 nM
